Experiment [1] relates to Saccharomyces cerevisiae strain Y294. In words: Calcofluor rescue screen (disk or well diffusion). Format: cell-based. Here is the method:
A preferred method comprises adding a test sample to a Saccharomyces cerevisiae culture containing calcofluor white or a calcofluor white derivative. The test sample is introduced to a disk or a well on a culture plate in a standard diffusion assay using solidified media, or introduced into one of a series of equivalent tissue culture tubes or bottles in a standard turbidity assay using liquid media. The culture is incubated for such time under such conditions sufficient to observe yeast cell growth inhibition in a corresponding culture or culture plate area containing calcofluor white but no test sample. The extent of growth of the culture containing or surrounding the test sample is compared with the extent of growth in the culture or culture area containing no test sample. The presence of chitin synthesis inhibition is determined by observing whether growth in the presence of test sample exceeds growth in its absence. In a culture plate, this is a turbid zone of growth surrounding the test sample. In a culture tube series, this is enhanced turbidity.
autoclaving at 20 lbs for 15 min. Strain Y294 having genotype MATα leu2-3,112 ura3-52 his3Δ trp1 GAL+[CIR+] inoculated into this liquid media and grown overnight, an OD600 of ˜5 or greater, while being shaken at 30° C.
The plates are poured and test samples are placed on the plates. A ¼″ disk containing […] of nikkomycin Z is used as a positive control. The plates are incubated at 30° C. for two days and then examined for activity. Actives produce a turbid zone surrounding the test sample.
All compounds are tested by disk diffusion assay using the method of this invention at a rate of 20 μg/disk.

Experiment [2] relates to strain ECY36-3D (relies on chitin synthase isozyme 2). In words: In vivo secondary screen, growth of chitin synthase mutant yeast. Format: cell-based, Saccharomyces cerevisiae. Conditions: for growth of strain ECY36-3D (in words): strain producing only Chs2. The text has this: (§1) One type of calcofluor rescue secondary screen is an in vivo test that assays the effect of compounds on the growth of chitin synthase mutant yeast strains that rely on a single chitin synthase isozyme for survival. A number of these strains have been described, such as the strains that rely on chitin synthase isozymes 2 or 3 described by Shaw, J. A., et al. (J. Cell Biol. 114: 111-123 (1991)) and similar strains described in the Examples section below. In this type of secondary screening test, the test sample added to and incubated in a culture of a mutant yeast strain producing only chitin synthase 2 or 3 (denoted, respectively, Chs2 and Chs3) for such time under such conditions sufficient to observe growth in a corresponding culture containing no test sample. A comparison of the extent of growth in the culture containing test sample with growth in its absence is then made. Inhibition of growth in the presence of test sample indicates inhibition of synthase isozyme produced by the strain. Any type of growth assessment may be employed but, as in the primary calcofluor rescue screen, preferred cultures in the secondary screen are solid, with test samples applied to a disk or well, so that cell growth can be easily determined by visual inspection.
(§2) Especially preferred in vivo secondary screens employ a pair of genetically related strains, one producing one isozyme, e.g., Chs2, and the other producing a different isozyme, e.g., Chs3. Using pairs allows for the simultaneous determination that culture conditions are appropriate for growth in the absence of inhibition and the identification of which isozyme may be affected by inhibition. The pairs, for example, include the ECY36-3C and ECY36-3D strains described by Shaw, cited above, that produce only Chs3 and Chs 2, respectively, and similar pairs such as SSY640-10A (containing only Chs3) and SSY-638-3B (containing only Chs 2) described in the Examples below. […] In a similar manner, a comparison of differential effects observed in the growth of strain pairs in the presence of a test sample allows for the putative identification of which isozyme is affected by the sample.
(§3) In Vivo Secondary Screens. The in vivo calcofluor rescue secondary screens assay the differential effect of compounds on the growth of two pairs of yeast strains. Each strain in the pairs, denoted ECY36-3C and ECY36-3D and SSY640-10A and SSY638-3B, is a chitin synthase mutant that relies on the expression of a single chitin synthase isozyme for its survival.
(§4) Strains ECY36-3C and ECY36-3D are described by Shaw, J. A., et al., cited above. ECY36-3C has the genotype MATa, chs1-23, chs2::LEU2, ura3-52, leu2-3,112, trp1-1 and ECY36-3D has the genotype MATa, chs1-23, ca1^R1 (chs3^−), ura3-52, leu2-3,112, trp1-1. Both strains are segregants from crossing strain ECY33-18A (Mata, chs1-23, ca1^R1, ura3-52, leu2-3,112, trp1-1) and ECY19 Δ22 2-5B (MATα, chs1-23, chs2::LEU2, ura3-52, leu2-3,112, trp1-1) using standard methodology. ECY36-3C relies on the expression of chitin synthase isozyme 3 for survival, and ECY36-3D relies on chitin synthase isozyme 2 (Chs2).
(§5) Strains ECY36-3C and ECY36-3D are inoculated in SD medium containing nutritional supplements appropriate to strain growth, e.g., containing about 0.01% (w/v) each of uracil, adenine sulfate, leucine, tryptophan, histidine, and lysine. When the cultures reach stationary phase (typically after 24 hours), they are used immediately or stored at 4° C. for up to a week before use. The cultures are diluted 1/100 into YEPD medium containing 2% agar which has been maintained at ˜50° C., immediately poured into petri dishes, and allowed to cool. Test compounds are applied to cellulose filter disks as described in Example 1 above (e.g., nikkomycin Z, 4 μl of a 5 mg/ml solution), and the disks are applied to the agar. Plates are incubated at 30° C. overnight and growth inhibitory zones are measured around the disks after 24 hours. […]

For experiment [3], the system named is strain ECY36-3C (relies on chitin synthase isozyme 3). The experiment is described as above. Format: cell-based, Saccharomyces cerevisiae. As to conditions: for growth of strain ECY36-3C (in words): strain producing only Chs3.
Text: as §1, §2, §3, §4, §5

The subject of experiment [4] is strain SSY640-10A (containing only Chs3). Described as above. The format is cell-based, Saccharomyces cerevisiae.
Text: as §2, §3
Strain SSY640-10A has genotype chs1::HIS3, chs2::TRP1, his3, trp1, ade2, ade3, leu2, lys2, ura3 (possible cmk1Δ 1::HIS3). […]

Where [5] appears, read: filter disk on YEPD agar, 24 hours, total applied: Nikkomycin Z 25 μg, Test Compound 1 45 μg, Test Compound 2 200 μg.

Take `C[C@@H]([C@H](N)C(=O)N[C@H](C(=O)O)[C@H]1O[C@@H](n2ccc(=O)[nH]c2=O)[C@H](O)[C@@H]1O)[C@H](O)c1ccc(O)cn1` [nikkomycin Z]: the “concentration at which detected in the calcofluor rescue assay” value in experiment [1] (30 μl volumes tested in welled plates) was around 70 µg/mL. For the same compound, the “activity in the calcofluor rescue screen (turbid zone of growth)” value in experiment [1] (disk diffusion assay, 20 μg/disk, 30° C., two days) is “active”. In experiment [2] (setting [5]), the “zone of inhibition, ECY36-3D” value was 0 mm. Moreover, the “growth of strain ECY36-3D (in words)” value was “unaffected” in experiment [2] and “does not inhibit growth” in experiment [2] (listed as Nikkomycin Z). Also, the “differential effect on Chs3-only versus Chs2-only strains” value in experiment [3] (comparison of strain pairs) was “inhibits Chs3 to a significantly greater extent than Chs2”. In addition, in experiment [3] (setting [5]), the “zone of inhibition, ECY36-3C” value is recorded as 21 mm. Also, the “growth of strain ECY36-3C (in words)” value is “inhibited” in experiment [3] and “inhibit the growth” in experiment [3] (listed as Nikkomycin Z). Besides, the “growth of strain SSY640-10A (in words)” value in experiment [4] is “inhibited”.

These data come from patent US6589762B1, “Calcafluor screen for chitin biosynthesis inhibitors” (priority 1993, dated 2003).
